Test results as given in patent US20050227956A1, “Control of mold growth on wood” (priority 2004, published 2005).

Legend:
Trichoderma virens = experiment: Six-well plate screening test; type: cell-based; details: for Minimum Inhibitory Concentrations (MIC): 10 days of incubation at room temperature
Penicillium funiculosum = experiment: Six-well plate screening test; type: cell-based; details: for Minimum Inhibitory Concentrations (MIC): 10 days of incubation at room temperature
Aureobasidium pullulans = experiment: Six-well plate screening test; type: cell-based; details: for Minimum Inhibitory Concentrations (MIC): 10 days of incubation at room temperature
[1] = system: Alternaria alternata, Aspergillus niger, Aureobasidium pullulans, Cladosporium cladosporioides, Cephalosporium sp. (DR 423); experiment: Wood panel test method; design: species or system mixed spore suspension of mold; details: compositions with the single moldicide at 40 mg/kg
Experimental: The wood panel specimens were approximately 5×3 inches (12.7×7.6 cm)×board thickness. There were seven replicates per treatment. The wood panels were conditioned at approximately 80° F. (27° C.) and 80% relative humidity for one week prior to mold inoculation. The wood panels were supported on a screen above a layer of water in a sealed plastic box for 8 weeks at approximately 80° F. (27° C.) and 100% relative humidity.
Mold and stain fungi used for inoculum were Alternaria alternata, Aspergillus niger, Aureobasidium pullulans, Cladosporium cladosporioides, and an additional mold isolated from ACQ-treated wood from Georgia Pacific (October 2002, tentatively identified as Cephalosporium sp. (DR 423).
Each inoculum was produced from fully colonized, 2% malt agar in 100 mm petri plates, by washing spores with 10 mL distilled water plus 10 mL rinse (20 mL inoculum were produced per plate). The panels were inoculated by spraying with mixed spore suspension of mold on the surface to be evaluated; approx. 2-3 mL of inoculum were applied per panel. The panel surfaces were lightly misted with distilled water once per week during the evaluation test to maintain optimum conditions for mold colonization in the chambers. Two evaluation ratings were made weekly for 8 weeks; using a scale of 0 (no coverage by mold) to 10 (total coverage by mold). […]

Mold from ACQ wood = experiment: Six-well plate screening test; type: cell-based, cephalosporium; details: 10 days of incubation at room temperature
Stachybotrus charatrum = experiment: Six-well plate screening test; type: cell-based
Aspergillus niger = experiment: Six-well plate screening test; type: cell-based; details: for Minimum Inhibitory Concentrations (MIC): 10 days of incubation at room temperature
Alternaria alternata = experiment: Six-well plate screening test; type: cell-based; details: for Minimum Inhibitory Concentrations (MIC): 10 days of incubation at room temperature
[2] = system: Cladosporium cladosporioides; experiment: Six-well plate screening test; type: cell-based; details: for Minimum Inhibitory Concentrations (MIC): 10 days of incubation at room temperature
[3] = single moldicide or ACQ-C alone, incubation period 14 days
[4] = single moldicide, incubation period 21 days

Row | SMILES | Minimum Inhibitory Concentrations (MIC) (Trichoderma virens) [mg/kg] | MIC (Trichoderma virens; [3]) [mg/kg] | MIC (Trichoderma virens; [4]) [mg/kg] | Minimum Inhibitory Concentrations (MIC) (Penicillium funiculosum) [mg/kg] | MIC (Penicillium funiculosum; [3]) [mg/kg] | MIC (Penicillium funiculosum; [4]) [mg/kg] | Minimum Inhibitory Concentrations (MIC) (Aureobasidium pullulans) [mg/kg] | MIC (Aureobasidium pullulans; [3]) [mg/kg] | MIC (Aureobasidium pullulans; [4]) [mg/kg] | potential to control mold growth [1] | Minimum Inhibitory Concentrations (MIC) (Mold from ACQ wood) [mg/kg] | MIC (Stachybotrus charatrum; [3]) [mg/kg] | MIC (Stachybotrus charatrum; [4]) [mg/kg] | Minimum Inhibitory Concentrations (MIC) (Aspergillus niger) [mg/kg] | MIC (Aspergillus niger; [3]) [mg/kg] | MIC (Aspergillus niger; [4]) [mg/kg] | Minimum Inhibitory Concentrations (MIC) (Alternaria alternata) [mg/kg] | MIC (Alternaria alternata; [3]) [mg/kg] | Minimum Inhibitory Concentrations (MIC) [2] [mg/kg] | MIC [2, 3] [mg/kg] | also measured
1 | CCCC1COC(Cn2cncn2)(c2ccc(Cl)cc2Cl)O1 (stereo not drawn) [Propiconazole, cis-trans-1-[2-(2,4-dichlorophenyl)-4-propyl-1,3-dioxolan-2-ylmethyl]-1H-1,2,4-triazole] | 10 | 6.2 | 12.5 | 100 | >100 | >100 | 1 | 0.8 | 0.8 | good potential to control mold growth | 10 | 25 | 25 | 10 | 25 | 25 | >100 | 100 | 1 | 3.1 | MIC (Alternaria alternata; [4]): 100 mg/kg; MIC [2, 4]: 3.1 mg/kg
2 | CC(C)(C)C(O)(CCc1ccc(Cl)cc1)Cn1cncn1 (racemic) [Tebuconazole, (RS)-1-p-chlorophenyl4,4-dimethyl-3-(1H-1,2,4-triazol-1-ylmethyl)pentan-3-ol] | >10 | >10 |  | >10 | >10 |  | 10 | 10 |  | good potential to control mold growth | >100 |  |  | 10 | 10 |  | 100 | 100 | 10 | 10 | 
3 | Cc1cc(C2CC2)nc(Nc2ccccc2)n1 [Cyprodinil, 4-cyclopropyl-6-methyl-N-phenylpyrimidin-2-amine] | >100 | 100 | >100 | 100 | 100 | 100 | 100 | 100 | >100 |  | >100 | 100 | 100 | 10 | 100 | >100 | 10 | 12.5 | 100 | 100 | MIC (Alternaria alternata; [4]): 50 mg/kg; MIC [2, 4]: >100 mg/kg
4 | CC1=C(C(=O)Nc2ccccc2)SCCO1 [Carboxin, 5,6-dihydro-2-methyl-1,4-oxathiine-3-carboxanilide] |  |  |  | >100 |  |  | 100 |  |  |  | >100 |  |  | >100 |  |  | >100 |  | 100 |  | Minimum Inhibitory Concentrations (MIC) (Stachybotrus charatrum; 10 days of incubation at room temperature): 100 mg/kg
